Measured values: patent US20100184758A1, “BETA CARBOLINE DERIVATIVES AS ANTIDIABETIC COMPOUNDS” (priority 2007, published 2010)

Experiments:
Format in all cases: in vivo, mouse
SSTR3 knock out mice = test: Glucose tolerance test in SSTR3 gene knockout mice; details: oral dose in the range of 1 to 30 mg/kg po
Protocol: (§1) Male C57BL/6N mice (7-12 weeks of age) are housed 10 per cage and given access to normal diet rodent chow and water ad libitum. Mice are randomly assigned to treatment groups and fasted 4 to 6 h. Baseline blood glucose concentrations are determined by glucometer from tail nick blood. Animals are then treated orally with vehicle (0.25% methylcellulose) or test compound. Blood glucose concentration is measured at a set time point after treatment (t=0 min) and mice are then challenged with dextrose intraperitoneally- (2-3 g/kg) or orally (3-5 g/kg). One group of vehicle-treated mice is challenged with saline as a negative control. Blood glucose levels are determined from tail bleeds taken at 20, 40, 60 minutes after dextrose challenge. […] Percent inhibition values for each treatment are generated from the AUC data normalized to the saline-challenged controls. A similar assay may be performed in rats.
In order to assess the selectivity of blockade of SSTR3, compounds were evaluated in the oral glucose tolerance test (oGTT) described above in mice lacking the gene for a functional SSTR3.

C57BL/6N mice [1] = test: Glucose tolerance test in mice; details: wild type mice containing intact, functional SSTR3
Protocol: as §1

C57BL/6N mice [2] = test: Oral glucose tolerance test in mice, SSTR3 antagonist combined with DPP-4 inhibitor; details: suboptimal doses 0.001 to 0.1 mg/kg po with low doses of a DPP-4 inhibitor such as sitagliptin and des-fluoro-sitagliptin
Protocol: Compounds of the present invention were combined with dipeptidyl peptidase-IV (DPP-4) inhibitors in oral glucose tolerance test (oGTT) described above. Male C57BL/6N mice (7-12 weeks of age) were housed 10 per cage and given access to normal rodent chow and water ad libitum. Mice were randomly assigned to treatment groups and fasted 4 to 6 h. Baseline blood glucose concentrations were determined by glucometer from tail nick blood. […] Blood glucose concentration was measured at a set time point after treatment (t=0 min) and mice were then challenged with dextrose intraperitoneally (2-3 g/kg) or orally (3-5 g/kg). One group of vehicle-treated mice was challenged with saline as a negative control. Blood glucose levels were determined from tail bleeds taken at 20, 40, 60 min after dextrose challenge. […] Percent inhibition values for each treatment were generated from the AUC data normalized to the saline-challenged controls.

SMILES	inhibition of glucose excursion in oGTT (SSTR3 knock out mice)	inhibition of glucose excursion in oGTT (C57BL/6N mice [1])	activity in oGTT in combination with a DPP-4 inhibitor versus alone (C57BL/6N mice [2])
CCOCC1(c2cnn(C)c2)N[C@@H](c2nc(-c3ccc(F)cc3)c[nH]2)Cc2c1[nH]c1ccccc21 (stereo partly drawn) [Example 20, (3R)-[4-(4-Fluorophenyl)-1H-imidazol-2-yl]-1-(ethoxymethyl)-1-(1-methyl-1H-pyrazol-4-yl)-2,3,4,9-tetrahydro-1H-β-carboline]	failed to significantly inhibit glucose excursion	inhibit glucose excursion	more active in combination with low doses of a DPP-4 inhibitor
Cc1nc(C2N[C@@H](c3nc(-c4ccc(F)cc4)c[nH]3)Cc3c2[nH]c2ccccc32)no1 (stereo partly drawn) [Example 17, (3R)-3-[4-(4-Fluorophenyl)-1H-imidazol-2-yl]-1-(5-methyl-1,2,4-oxadiazol-3-yl)-2,3,4,9-tetrahydro-1H-β-carboline]	failed to significantly inhibit glucose excursion	inhibit glucose excursion	–
Cc1nc(C2(c3cnn(C)c3)N[C@@H](c3nc(-c4ccc(F)cc4)c[nH]3)Cc3c2[nH]c2ccccc32)no1 (stereo partly drawn) [Example 21, (3R)-[4-(4-Fluorophenyl)-1H-imidazol-2-yl]-1-(5-methyl-1,2,4-oxadiazol-3-yl)-1-(1-methyl-1H-pyrazol-4-yl)-2,3,4,9-tetrahydro-1H-β-carboline]	–	inhibit glucose excursion	–
